Source: patent publication US5364842A (priority 1993, dated 1994)
Bridge positions count the residues as written; N and C are the ends. Square brackets hold non-standard residues; d marks the D form. Peptide text beside a SMILES is read from it. Hyp = O=C(O)[C@@H]1C[C@@H](O)CN1

Molecular target: N-type or omega HVA neuronal calcium channels; calcium currents in N1E-115 neuroblastoma cells (Mus musculus, UniProt O55017)
Type: cell-based

N-type or omega HVA neuronal calcium channels; calcium currents in N1E-115 neuroblastoma cells, sequence (O55017 whole entry): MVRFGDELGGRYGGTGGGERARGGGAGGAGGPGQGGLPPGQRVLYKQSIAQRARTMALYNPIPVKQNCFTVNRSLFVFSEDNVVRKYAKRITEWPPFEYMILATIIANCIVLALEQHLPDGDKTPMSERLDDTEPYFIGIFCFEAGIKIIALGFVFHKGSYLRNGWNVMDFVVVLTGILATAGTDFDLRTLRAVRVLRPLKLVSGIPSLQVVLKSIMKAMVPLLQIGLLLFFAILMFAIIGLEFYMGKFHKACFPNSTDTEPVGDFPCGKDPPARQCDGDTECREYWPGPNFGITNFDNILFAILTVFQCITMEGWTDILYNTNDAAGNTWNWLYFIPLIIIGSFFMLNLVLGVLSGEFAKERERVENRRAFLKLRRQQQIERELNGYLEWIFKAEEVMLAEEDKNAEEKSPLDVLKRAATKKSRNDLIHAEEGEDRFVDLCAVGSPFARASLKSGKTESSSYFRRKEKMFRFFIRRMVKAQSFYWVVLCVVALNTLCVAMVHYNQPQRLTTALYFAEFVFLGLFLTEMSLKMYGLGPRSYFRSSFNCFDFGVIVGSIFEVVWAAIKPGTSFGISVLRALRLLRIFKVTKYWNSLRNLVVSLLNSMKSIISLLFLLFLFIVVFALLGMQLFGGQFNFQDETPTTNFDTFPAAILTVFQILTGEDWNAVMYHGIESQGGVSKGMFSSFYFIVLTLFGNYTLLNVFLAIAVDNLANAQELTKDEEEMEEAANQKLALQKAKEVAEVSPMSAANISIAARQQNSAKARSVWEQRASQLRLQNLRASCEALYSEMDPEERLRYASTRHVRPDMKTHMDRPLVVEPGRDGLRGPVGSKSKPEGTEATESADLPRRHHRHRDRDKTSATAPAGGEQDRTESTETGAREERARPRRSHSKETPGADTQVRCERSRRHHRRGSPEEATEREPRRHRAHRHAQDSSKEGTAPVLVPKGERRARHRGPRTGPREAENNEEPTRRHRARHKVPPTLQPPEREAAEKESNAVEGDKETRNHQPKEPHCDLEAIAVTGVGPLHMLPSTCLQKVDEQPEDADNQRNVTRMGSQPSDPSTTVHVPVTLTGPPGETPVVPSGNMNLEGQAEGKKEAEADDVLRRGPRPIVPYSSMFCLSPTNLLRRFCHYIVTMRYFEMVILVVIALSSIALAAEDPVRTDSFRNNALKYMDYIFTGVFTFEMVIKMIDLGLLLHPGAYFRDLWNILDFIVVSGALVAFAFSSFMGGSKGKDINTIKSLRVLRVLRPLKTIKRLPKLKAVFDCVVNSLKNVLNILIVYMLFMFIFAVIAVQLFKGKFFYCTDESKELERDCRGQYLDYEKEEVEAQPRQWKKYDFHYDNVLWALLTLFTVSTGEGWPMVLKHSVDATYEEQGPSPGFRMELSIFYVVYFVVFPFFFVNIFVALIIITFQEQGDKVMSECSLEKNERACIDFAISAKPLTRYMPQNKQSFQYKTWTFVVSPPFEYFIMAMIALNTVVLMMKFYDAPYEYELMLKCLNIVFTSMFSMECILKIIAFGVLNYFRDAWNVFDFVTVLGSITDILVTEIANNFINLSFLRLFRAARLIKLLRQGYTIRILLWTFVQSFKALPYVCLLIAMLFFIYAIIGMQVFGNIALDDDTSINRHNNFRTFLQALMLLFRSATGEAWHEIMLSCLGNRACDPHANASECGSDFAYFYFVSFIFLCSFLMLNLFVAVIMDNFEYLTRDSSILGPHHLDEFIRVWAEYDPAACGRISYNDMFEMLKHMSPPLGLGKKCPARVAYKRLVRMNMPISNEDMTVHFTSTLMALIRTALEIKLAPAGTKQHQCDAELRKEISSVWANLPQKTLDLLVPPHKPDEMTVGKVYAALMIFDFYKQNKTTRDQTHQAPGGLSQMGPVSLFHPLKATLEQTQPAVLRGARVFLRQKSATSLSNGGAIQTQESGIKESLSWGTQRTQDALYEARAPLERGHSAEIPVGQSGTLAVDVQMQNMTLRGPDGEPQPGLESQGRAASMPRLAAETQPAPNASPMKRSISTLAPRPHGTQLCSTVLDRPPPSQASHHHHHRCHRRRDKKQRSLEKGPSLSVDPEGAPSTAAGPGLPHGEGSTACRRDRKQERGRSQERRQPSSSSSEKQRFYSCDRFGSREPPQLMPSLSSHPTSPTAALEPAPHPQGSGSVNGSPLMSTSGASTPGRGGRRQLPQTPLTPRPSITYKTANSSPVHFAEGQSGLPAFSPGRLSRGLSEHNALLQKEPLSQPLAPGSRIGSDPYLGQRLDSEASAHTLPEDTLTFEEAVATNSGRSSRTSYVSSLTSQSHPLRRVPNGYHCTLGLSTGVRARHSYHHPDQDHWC
N-type or omega HVA neuronal calcium channels; calcium currents in N1E-115 neuroblastoma cells, sequence (O08532 25-956 partner limits assumed): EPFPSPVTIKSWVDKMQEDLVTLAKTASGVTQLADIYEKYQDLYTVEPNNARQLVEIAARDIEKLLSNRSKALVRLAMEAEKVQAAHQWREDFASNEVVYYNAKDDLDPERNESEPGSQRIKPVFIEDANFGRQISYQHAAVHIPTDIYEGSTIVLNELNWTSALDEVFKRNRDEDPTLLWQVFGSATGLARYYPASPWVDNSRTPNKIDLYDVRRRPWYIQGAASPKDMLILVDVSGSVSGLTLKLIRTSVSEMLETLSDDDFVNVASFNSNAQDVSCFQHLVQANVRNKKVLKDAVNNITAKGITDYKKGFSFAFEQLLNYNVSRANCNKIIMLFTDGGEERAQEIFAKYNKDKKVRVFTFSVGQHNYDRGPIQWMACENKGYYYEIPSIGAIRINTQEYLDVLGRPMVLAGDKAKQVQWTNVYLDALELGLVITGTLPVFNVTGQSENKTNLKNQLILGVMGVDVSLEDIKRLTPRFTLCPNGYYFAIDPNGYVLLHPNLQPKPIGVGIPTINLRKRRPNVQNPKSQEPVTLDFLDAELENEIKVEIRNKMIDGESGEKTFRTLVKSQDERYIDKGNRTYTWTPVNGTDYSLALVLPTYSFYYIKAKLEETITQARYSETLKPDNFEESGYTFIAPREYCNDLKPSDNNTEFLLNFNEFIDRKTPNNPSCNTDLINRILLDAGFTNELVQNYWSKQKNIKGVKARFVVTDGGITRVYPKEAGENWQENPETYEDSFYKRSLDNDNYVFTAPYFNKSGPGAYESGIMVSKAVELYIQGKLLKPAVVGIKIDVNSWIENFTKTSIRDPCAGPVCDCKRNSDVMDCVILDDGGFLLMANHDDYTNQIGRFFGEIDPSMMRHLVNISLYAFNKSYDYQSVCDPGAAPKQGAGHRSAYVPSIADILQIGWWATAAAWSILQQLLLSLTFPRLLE
N-type or omega HVA neuronal calcium channels; calcium currents in N1E-115 neuroblastoma cells, sequence (O08532 957-1103 partner limits assumed): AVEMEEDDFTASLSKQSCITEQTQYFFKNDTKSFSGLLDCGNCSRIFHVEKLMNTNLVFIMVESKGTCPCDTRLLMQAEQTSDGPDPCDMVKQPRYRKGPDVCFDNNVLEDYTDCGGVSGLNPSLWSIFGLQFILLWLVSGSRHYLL

Compound: CC[C@H](C)[C@@H]1NC(=O)[C@H](CO)NC(=O)[C@H]([C@@H](C)O)NC(=O)[C@H](C(C)C)NC(=O)CNC(=O)[C@@H]2CSSC[C@@H]3NC(=O)[C@H](CCCNC(=N)N)NC(=O)CNC(=O)[C@H](CSSC[C@H](N)C(=O)N[C@@H](CCCNC(=N)N)C(=O)N[C@@H](CO)C(=O)N[C@@H](CO)C(=O)NCC(=O)N[C@@H](CO)C(=O)N4C[C@H](O)C[C@H]4C(=O)N2)NC(=O)[C@H](CSSC[C@@H](C(=O)N[C@H](C(N)=O)[C@@H](C)O)NC(=O)[C@H](CCCCN)NC(=O)CNC(=O)[C@H](CCCNC(=N)N)NC(=O)[C@H](Cc2ccc(O)cc2)NC3=O)NC1=O [SNX-157] (H-CRSSGS[Hyp]CGVTSICCGRCYRGKCT-NH2; disulfide 1-15, 8-18, 14-23)
- IC50, inhibition of calcium currents in N1E-115 neuroblastoma cells: > 20 μM
